The species entered for one experiment is Rattus norvegicus. The experiment is described as follows: Binding affinity to GABAB receptor gamma-hydroxybutyric acid binding site in UV irradiated rat cerebral cortex synaptic membranes assessed as covalent binding at 100 nM after 1 hr by gamma-hydroxybutyric acid displacement assay. The class given is tissue-based. As to conditions: tested as the 125I-labelled form.

Experiment [1] can be described thus: Displacement of [3H]NCS-382 from GABAB receptor gamma-hydroxybutyric acid binding site in rat cerebral cortex synaptic membranes after 1 hr by liquid scintillation counting. Type of experiment: cell membranes, Membrane.

The record followed here is ChEMBL document CHEMBL1240511, “Design, synthesis, and in vitro pharmacology of new radiolabeled gamma-hydroxybutyric acid analogues including photolabile analogues with irreversible binding to the high-affinity gamma-hydroxybutyric acid binding sites” (J Med Chem, 2010).

Calls of active or inactive are those of the source. The rule behind the calls is not given here.

Broadly, the Ki is the equilibrium dissociation constant of an inhibitor or competing ligand from its target. Read a high Ki as a looser hold on the target.

In the case of `[N-]=[N+]=Nc1ccc(I)cc1COc1ccc(C(O)CCC(=O)O)cc1` (centres undefined), in the experiment filed under Rattus norvegicus, the result was Active. In addition, in experiment [1], the Ki is 120 nM. Take `[N-]=[N+]=Nc1ccc(COc2ccc(C(O)CCC(=O)O)cc2)cc1I` (centres undefined): the affinity in experiment [1] corresponds to a Ki of 186 nM. Same read-out and setting: the same measure for `O=C(O)CCC(O)c1ccc(OCc2cccc(I)c2)cc1` (centres undefined): 75 nM.
